Laboratory results published in US20140065697A1, “CELLS AND METHODS FOR PRODUCING ISOBUTYRIC ACID” (Regents of the University of Minnesota, priority 2011, published 2014).
Like-named read-outs stand apart in the source and are kept apart here.

What was measured:
PadA [1] = target: T1, PadA (Escherichia coli, UniProt P80668); assay: Measurement of PadA activity (NADH generation at 340 nm, Michaelis-Menten fit); format: biochemical, E. coli; conditions: for kcat: substrate isobutyraldehyde
T1 construct: […]; 6xHis (N); made in house; host or cells: E. coli BL-21 harboring pREP4; plasmid pIBA10 (pQE9)
T1 sequence (P80668 1-499): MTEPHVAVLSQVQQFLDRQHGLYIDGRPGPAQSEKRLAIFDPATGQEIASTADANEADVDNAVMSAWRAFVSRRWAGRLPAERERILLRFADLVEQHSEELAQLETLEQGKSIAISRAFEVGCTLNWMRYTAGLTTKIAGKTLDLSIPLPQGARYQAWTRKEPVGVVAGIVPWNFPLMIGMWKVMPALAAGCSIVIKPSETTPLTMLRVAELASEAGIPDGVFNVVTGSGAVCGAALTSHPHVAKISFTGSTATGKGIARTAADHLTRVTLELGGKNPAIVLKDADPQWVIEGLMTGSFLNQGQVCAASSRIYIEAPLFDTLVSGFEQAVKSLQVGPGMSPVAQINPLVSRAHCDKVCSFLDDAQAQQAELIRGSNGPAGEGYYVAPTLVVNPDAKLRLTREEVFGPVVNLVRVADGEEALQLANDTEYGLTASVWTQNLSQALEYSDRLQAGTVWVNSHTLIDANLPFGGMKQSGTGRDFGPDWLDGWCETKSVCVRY
Procedure: (§1) Because it produced the greatest amount of isobutyrate, we selected PadA for further study. To characterize the enzyme, PadA was tagged with an N-terminal 6×His-tag, overexpressed, and purified through a Ni-NTA column. The kinetic parameters for conversion of isobutyraldehyde by PadA were determined by measuring the reduction of NAD+ to NADH at 340 nm. PadA activity toward isobutyraldehyde is much lower than that toward its natural physiological substrate phenylacetaldehyde.
(§2) pIBA10 was transformed into BL-21 E. coli host harboring the pREP4 plasmid (Qiagen; Valencia, Calif.). An overnight pre-culture was diluted 100-fold in 300 mL 2×YT rich medium containing 50 mg/L ampicillin, 25 mg/L kanamycin and 0.1 mM IPTG. Expression of recombinant protein was performed at 30° C. overnight.
(§3) The cell pellet was sonicated in 30 mL lysis buffer (250 mM NaCl, 2 mM DTT, 5 mM imidazole and 50 mM Tris pH 8.0). The cellular debris was removed by centrifugation at 15,000 RPM for 20 minutes. The supernatant was passed through a Ni-NTA column. Then the column was washed with 10 mL wash buffer (250 mM NaCl, 20 mM imidazole and 50 mM Tris pH 8.0) four times. Finally, the target protein was eluted with 10 mL elution buffer (250 mM NaCl, 250 mM imidazole and 50 mM Tris pH 8.0). The eluate was buffer-exchanged and concentrated into storage buffer ([…] tris buffer, pH 8.0, and 20% glycerol) using AMICON ULTRA centrifugal filter (Millipore Corp.; Billerica, Mass.). Protein concentration was determined by measuring the UV absorbance at 280 nm (extinction coefficient, 75070 cm^−1 M^−1). The concentrated protein solution was aliquoted (100 μl) into PCR tubes and flash frozen at −80° C. for long term storage.
(§4) Substrate isobutyraldehyde was purchased from Fisher Scientific International, Inc. (Hampton, N.H.), and NAD^+ was from New England Biolabs, Inc., (Ipswich, Mass.). The reaction mixture contained 0.5 mM NAD^+ and 0.2-4 mM isobutyraldehyde in assay buffer (50 mM NaH2PO4, pH 8.0, 1 mM DTT) with a total volume of 80 μl. The reactions were started by adding 2 μl […] (final enzyme concentration 25 nM), and the generation of NADH was monitored at 340 nm (extinction coefficient, 6.22 mM^−1 cm^−1). Kinetic parameters (kat and Km) were determined by fitting initial velocity data to the Michaelis-Menten equation using Origin software.

YqhD = YqhD (Escherichia coli, UniProt Q46856); conditions: Atsumi et al., 2010; cited from earlier work
PadA [2] = target: T1, PadA; conditions: natural substrate phenylacetaldehyde (asterisked line); cited from earlier work
CC(C)C=O = assay: Measurement of PadA activity (NADH generation at 340 nm, Michaelis-Menten fit); format: biochemical, E. coli; conditions: other: PadA, substrate isobutyraldehyde, 0.5 mM NAD+, pH 8.0, 30.0 °C
Procedure: as §1, §2, §3, §4

Chain of YqhD (Q46856 whole entry): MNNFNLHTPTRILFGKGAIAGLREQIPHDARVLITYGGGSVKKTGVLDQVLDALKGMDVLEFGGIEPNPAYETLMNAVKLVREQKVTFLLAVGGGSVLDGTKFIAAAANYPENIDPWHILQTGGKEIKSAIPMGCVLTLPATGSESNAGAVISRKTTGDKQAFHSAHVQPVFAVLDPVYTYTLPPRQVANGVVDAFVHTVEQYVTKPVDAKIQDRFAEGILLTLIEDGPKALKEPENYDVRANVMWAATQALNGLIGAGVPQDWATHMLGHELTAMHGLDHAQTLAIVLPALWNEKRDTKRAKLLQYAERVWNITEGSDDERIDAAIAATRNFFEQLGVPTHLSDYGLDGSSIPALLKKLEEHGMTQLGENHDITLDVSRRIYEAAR

For `CC(C)C=O` [Isobutyraldehyde, isobutyraldehyde], the “Km value higher than toward phenylacetaldehyde” value (PadA [1]) was 230 fold, the “kcat value lower than toward phenylacetaldehyde” value (PadA [1]) was 4 fold and the kcat (PadA [1]) was 24.9 ± 0.5 s⁻¹. For the same molecule, the kcat (PadA [1]; listed as isobutyraldehyde) was 24.9 s⁻¹ and the Km (YqhD) was 1800 µM.
For `O=CCc1ccccc1` [Phenylacetaldehyde, phenylacetaldehyde], the “specificity constant kcat/Km higher than towards isobutyraldehyde” value (PadA [1]) is given as roughly 1000 fold, the Km (PadA [2]) is given as 11.6 µM and the kcat (PadA [2]) is given as 96.83 s⁻¹.
Work on PadA (Escherichia coli K-12) yielded a Km (CC(C)C=O) of 2670 µM.
